Measured values published in publication PMC8348310, “Antioxidants Isolated from Elaeagnus umbellata (Thunb.) Protect against Bacterial Infections and Diabetes in Streptozotocin-Induced Diabetic Rat Model” (Molecules, 2021).
Converted amounts (≈) assume the structure as drawn. “And” between values parts separate entries of the source, which are not always exact repeats. Equal entries are not always repeated.

How the values were obtained:
[1] = ABTS free radical scavenging assay; type: biochemical; settings: for ABTS IC50: linear regression of % scavenging vs concentration
Description: ABTS (2,2′-azinobis-3-ethylbenzothiazoline-6-sulfonic acid) free radicals inhibition potential were determined according to the reported assay. ABTS solution was prepared in methanol (100 mL). In total, 300 µL of compound (morin, phloroglucinol, and 1-hexyl benzene) was mixed thoroughly with 3.0 mL ABTS solution and incubated for six minutes. Finally, the absorbance was measured through UV spectrophotometer using ascorbic acid as positive control. Percent ABTS free radicals scavenging potential was calculated using the equation No. 1.
All the in vitro and in vivo experiments were analyzed in three replicates and determined as mean ± SEM. Student’s t-test and one way ANOVA followed by Dunnett’s post hoc multiple comparison test was used. p ≤ 0.05 were considered as significant. Linear regression analysis was used to calculate the IC50 value for % DPPH, ABTS, α-amylase, and α-glucosidase inhibition against the different concentrations of the test samples by means of Excel program 2007.

Salmonella typhi [2] = assay: Agar well diffusion, zone of inhibition; type: cell-based; settings: 24 h; for zone of inhibition at 100 µg/mL: Salmonella enterica, TYPHI; for Zone of Inhibition: Salmonella typhi, 100 µg/mL, 37 °C
Staphylococcus aureus [3] = assay: Broth dilution MIC determination; type: cell-based; settings: 37 °C, 24 h, read-out: Minimum Inhibitory Concentrations
Description: Stock solutions of morin, phloroglucinol, and 1-hexyl benzene were prepared in dimethylsulphoxide (DMSO). […] Sterile centrifuge tubes were arranged in sets of rows for each bacterial inoculum to cover the different concentration of isolated compounds in triplicate. […] A sterility control tube and a growth control tube were also incubated (for each strain). The tubes were incubated at 37 °C for 24 h. After incubation, 40 μL of a 0.4 mg/mL solution of para iodonitrotetrazolium (INT) chloride was added to each tube as an indicator of microbial growth. […] The evaluation for the inhibition of microbial growth was based on the color change of INT to pink, while no color change indicates the absence of growth. The MIC is the lowest concentration of the compounds at which there is no visible growth in the tubes. The concentration that inhibited bacterial growth completely (the first clear tube) was taken as the MIC value. Experiments were performed in triplicate and mean values are presented. […] A negative control experiment was conducted using only DMSO.

Escherichia coli = assay: Agar well diffusion, zone of inhibition; type: cell-based; settings: 37 °C, 24 h; for Zone of Inhibition: 100 µg/mL
Description: (§1) Antibacterial potential of isolated compound was investigated against both Gram-positive and Gram-negative bacterial strains; Escherichia coli, Bacillus cereus, Salmonella typhi, Klebsiella pneumonia, Pseudomonas aeruginosa and Proteus mirabilis. Bacterial strains were provided by the Department of Pharmacy, University of Malakand, Khyber Pakhtunkhwa, Pakistan, and were kept at 4 °C in agar slants in freeze-dried condition until further use.
(§2) Both Gram-positive and Gram-negative bacterial strains Escherichia coli, Bacillus cereus, Salmonella typhi, Klebsiella pneumonia, Pseudomonas aeruginosa and Proteus mirabilis organism viable count per mL in the stock suspension was determined using surface viable counting technique. About 10^8–10^9 colony-forming units (CFU) per mL were used as inoculum in subsequent experiments. A fresh stock suspension was used each time.
(§3) The antibacterial activity of the isolated compounds (morin, phloroglucinol, and 1-hexyl benzene) was determined using agar well diffusion method. Muller–Hinton agar media was prepared and autoclaved at 15 lbs pressure for 20 min and cooled to 45 °C. The standard bacterial stock suspension 10^8–10^9 CFU/mL were spread on Muller–Hinton agar plates and five wells (3 mm in diameter; four on side and one in center) were punched in plates using a sterile cork borer. The entire wells were filled with 100 µL of the isolated compounds (stock solution: 1 mg/mL) using microtiter-pipette and allowed to diffuse at room temperature for 2 h. The plates were incubated at 37 °C for 24 h. In the center hole, Imipenem was added which served as positive control. Simultaneous, addition of an equal concentration of DMSO solvent instead of isolated compounds was used as blank. After incubation, the zones of inhibition were measured in millimeters (mm) and mean values were calculated. The experiments were performed in triplicates.

Bacillus cereus = assay: Agar well diffusion, zone of inhibition; type: cell-based; settings: 37 °C, 24 h; for Zone of Inhibition: 100 µg/mL
Description: as §1, §2, §3

Pseudomonas aeruginosa = assay: Agar well diffusion, zone of inhibition; type: cell-based; settings: 37 °C, 24 h; for Zone of Inhibition: 100 µg/mL
Description: as §1, §2, §3

Klebsiella pneumonia = assay: Agar well diffusion, zone of inhibition; type: cell-based; settings: 37 °C, 24 h; for Zone of Inhibition: 100 µg/mL; for zone of inhibition at 100 µg/mL: Klebsiella pneumoniae
Description: as §1, §2, §3

Proteus mirabilis = assay: Agar well diffusion, zone of inhibition; type: cell-based; settings: 37 °C, 24 h; for Zone of Inhibition: 100 µg/mL
Description: as §1, §2, §3

Staphylococcus aureus [4] = assay: Agar well diffusion, zone of inhibition; type: cell-based; settings: 37 °C, 24 h; for Zone of Inhibition: 100 µg/mL
Description: as §3, with “The standard bacterial stock suspension 10^8–10^9 CFU/mL were spread on Muller–Hinton agar plates and five wells (3 mm in diameter; four on side and one in center) were punched in plates using a sterile cork borer.” left out

[5] = DPPH free radical scavenging assay; type: biochemical; settings: 125 µg/mL
Salmonella typhi [6] = assay: Broth dilution MIC determination; type: cell-based; settings: Salmonella enterica, 24 h, read-out: Minimum Inhibitory Concentrations

SMILES: CCCCCCc1ccccc1 [1-Hexyl benzene, 1-hexylbenzene]
- % ABTS Scavenging Mean ± SEM ([1]; 31.05 µg/mL): 19 ± 1.4 %
- % ABTS Scavenging Mean ± SEM ([1]; 62.5 µg/mL): 26 ± 0.5 %
- % ABTS Scavenging Mean ± SEM ([1]; 125 µg/mL): 31 ± 1.0 %
- % ABTS Scavenging Mean ± SEM ([1]; 250 µg/mL): 39 ± 1.5 %
- % ABTS Scavenging Mean ± SEM ([1]; 500 µg/mL): 47 ± 2.2 %
- % ABTS Scavenging Mean ± SEM ([1]; 1000 µg/mL): 55 ± 1.1 %
- ABTS IC50 [1]: 129 mg/L
- zone of inhibition at 100 µg/mL (Salmonella typhi [2]): 7.4 ± 1.2 mm
- Zone of Inhibition (Salmonella typhi [2]): 7.4 ± 1.2 mm
- MIC (Staphylococcus aureus [3]): 205 ± 2.1 mg/L (≈ 1260 µM)
- Zone of Inhibition (Escherichia coli): 9.3 ± 1.1 mm
- zone of inhibition at 100 µg/mL (Escherichia coli): 9.3 ± 1.1 mm
- Zone of Inhibition (Bacillus cereus): 8.5 ± 0.1 mm
- zone of inhibition at 100 µg/mL (Bacillus cereus): 8.5 ± 0.1 mm
- Zone of Inhibition (Pseudomonas aeruginosa): 5.5 ± 0.5 mm
- zone of inhibition at 100 µg/mL (Pseudomonas aeruginosa): 5.5 ± 0.5 mm
- Zone of Inhibition (Klebsiella pneumonia): 6.3 ± 0.5 mm
- zone of inhibition at 100 µg/mL (Klebsiella pneumonia): 6.3 ± 0.5 mm
- Zone of Inhibition (Proteus mirabilis): 4.5 ± 1.5 mm
- zone of inhibition at 100 µg/mL (Proteus mirabilis): 4.5 ± 1.5 mm
- Zone of Inhibition (Staphylococcus aureus [4]): 3.4 ± 0.4 mm
- zone of inhibition at 100 µg/mL (Staphylococcus aureus [4]): 3.4 ± 0.4 mm
- % DPPH Scavenging Mean ± SEM [5]: 40 ± 1.1 %
- MIC (Salmonella typhi [6]): 112 ± 1.6 mg/L (≈ 690 µM)

SMILES: O=c1c(O)c(-c2ccc(O)cc2O)oc2cc(O)cc(O)c12 [Morin, 2-(2,4-Dihydroxyphenyl)-3,5,7-trihydroxychromen-4-one]
- % ABTS Scavenging Mean ± SEM ([1]; 31.05 µg/mL): 45 ± 0.5 %
- % ABTS Scavenging Mean ± SEM ([1]; 62.5 µg/mL): 57 ± 1.4 %
- % ABTS Scavenging Mean ± SEM ([1]; 125 µg/mL): 64 ± 1.2 %
- % ABTS Scavenging Mean ± SEM ([1]; 250 µg/mL): 75 ± 0.5 ^ns %
- % ABTS Scavenging Mean ± SEM ([1]; 500 µg/mL): 80 ± 1.0 ^ns %
- % ABTS Scavenging Mean ± SEM ([1]; 1000 µg/mL): 88 ± 1.0% and 88 ± 1.0 ^ns %
- ABTS IC50 [1]: 40 mg/L
- zone of inhibition at 100 µg/mL (Salmonella typhi [2]): 16 ± 1.2 mm
- Zone of Inhibition (Salmonella typhi [2]): 16 ± 1.2 mm
- MIC (Staphylococcus aureus [3]): 68 ± 1.3 mg/L (≈ 225 µM)
- Zone of Inhibition (Escherichia coli): 19 ± 1.1 mm
- zone of inhibition at 100 µg/mL (Escherichia coli): 19 ± 1.1 mm
- Zone of Inhibition (Bacillus cereus): 17 ± 0.1 mm
- zone of inhibition at 100 µg/mL (Bacillus cereus): 17 ± 0.1 mm
- Zone of Inhibition (Pseudomonas aeruginosa): 14 ± 0.5 mm
- zone of inhibition at 100 µg/mL (Pseudomonas aeruginosa): 14 ± 0.5 mm
- Zone of Inhibition (Klebsiella pneumonia): 15 ± 0.5 mm
- zone of inhibition at 100 µg/mL (Klebsiella pneumonia): 15 ± 0.5 mm
- Zone of Inhibition (Proteus mirabilis): 11 ± 1.5 mm
- zone of inhibition at 100 µg/mL (Proteus mirabilis): 11 ± 1.5 mm
- Zone of Inhibition (Staphylococcus aureus [4]): 13 ± 0.4 mm
- zone of inhibition at 100 µg/mL (Staphylococcus aureus [4]): 13 ± 0.4 mm
- % DPPH Scavenging Mean ± SEM [5]: 68 ± 1.2 %
- MIC (Salmonella typhi [6]): 28 ± 1 mg/L (≈ 92.6 µM)

SMILES: Oc1cc(O)cc(O)c1 [Phloroglucinol, Benzene-1,3,5-triol]
- % ABTS Scavenging Mean ± SEM ([1]; 31.05 µg/mL): 25 ± 1.0 %
- % ABTS Scavenging Mean ± SEM ([1]; 62.5 µg/mL): 33 ± 0.5 %
- % ABTS Scavenging Mean ± SEM ([1]; 125 µg/mL): 39 ± 1.2 %
- % ABTS Scavenging Mean ± SEM ([1]; 250 µg/mL): 45 ± 1.0 %
- % ABTS Scavenging Mean ± SEM ([1]; 500 µg/mL): 51 ± 0.5 %
- % ABTS Scavenging Mean ± SEM ([1]; 1000 µg/mL): 64 ± 1.1 %
- ABTS IC50 [1]: 112 mg/L
- zone of inhibition at 100 µg/mL (Salmonella typhi [2]): 12 ± 1.1 mm
- Zone of Inhibition (Salmonella typhi [2]): 12 ± 1.1 mm
- MIC (Staphylococcus aureus [3]): 192 ± 2.3 mg/L (≈ 1520 µM)
- Zone of Inhibition (Escherichia coli): 15 ± 0.3 mm
- zone of inhibition at 100 µg/mL (Escherichia coli): 15 ± 0.3 mm
- Zone of Inhibition (Bacillus cereus): 13 ± 1.2 mm
- zone of inhibition at 100 µg/mL (Bacillus cereus): 13 ± 1.2 mm
- Zone of Inhibition (Pseudomonas aeruginosa): 10 ± 1.1 mm
- zone of inhibition at 100 µg/mL (Pseudomonas aeruginosa): 10 ± 1.1 mm
- Zone of Inhibition (Klebsiella pneumonia): 11 ± 0.5 mm
- zone of inhibition at 100 µg/mL (Klebsiella pneumonia): 11 ± 0.5 mm
- Zone of Inhibition (Proteus mirabilis): 7.5 ± 0.2 mm
- zone of inhibition at 100 µg/mL (Proteus mirabilis): 7.5 ± 0.2 mm
- Zone of Inhibition (Staphylococcus aureus [4]): 9.5 ± 2.1 mm
- zone of inhibition at 100 µg/mL (Staphylococcus aureus [4]): 9.5 ± 2.1 mm
- % DPPH Scavenging Mean ± SEM [5]: 40 ± 0.5 %
- MIC (Salmonella typhi [6]): 175 ± 2 mg/L (≈ 1390 µM)
